Laboratory results published in ChEMBL document CHEMBL5576067, “Synthesis and biological evaluation of novel 1,2,3,4-tetrahydro-β-carboline derivatives as potential antibacterial agents” (Bioorg Med Chem Lett, 2024).
≈ marks a conversion by molar mass, not a printed value. Calls of active or inactive are those of the source. The rule behind the calls is not given here.

Key:
Escherichia coli = assay: Antibacterial activity against Escherichia coli ATCC25922 assessed as inhibition of bacterial growth incubated for 24 hrs by broth microdilution method; assay type: functional
Enterococcus faecium = assay: Antibacterial activity against vancomycin-resistant Enterococcus faecium ATCC 700221 assessed as inhibition of bacterial growth incubated for 24 hrs by broth microdilution method; assay type: functional
[1] = Antibacterial activity against Pseudomonas syringae pv. actinidiae assessed as inhibition of bacterial growth incubated for 24 hrs by broth microdilution method; assay type: functional
Staphylococcus aureus [2] = assay: Antibacterial activity against methicillin resistant Staphylococcus aureus ATCC33591 assessed as inhibition of bacterial growth incubated for 24 hrs by broth microdilution method; assay type: functional
Staphylococcus aureus [3] = assay: Antibacterial activity against Staphylococcus aureus ATCC25923 assessed as inhibition of bacterial growth incubated for 24 hrs by broth microdilution method; assay type: functional
Ralstonia solanacearum = assay: Antibacterial activity against Ralstonia solanacearum assessed as inhibition of bacterial growth incubated for 24 hrs by broth microdilution method; assay type: functional
Staphylococcus aureus [4] = assay: Antibacterial activity against methicillin resistant Staphylococcus aureus ATCC33591 assessed as post antibiotic effect at 16 ug/ml measured after 2 hrs; assay type: functional; settings: dose 16 µg/ml
Staphylococcus aureus [5] = assay: Antibacterial activity against methicillin resistant Staphylococcus aureus ATCC33591 assessed as eradication of viable bacteria at >8 times MIC measured after 24 hrs by time kill assay; assay type: functional, organism-based
Staphylococcus aureus [6] = assay: Bactericidal activity against methicillin resistant Staphylococcus aureus ATCC33591 assessed as inhibition of bacterial growth incubated for 24 hrs by resazurin dye based analysis; assay type: functional
Staphylococcus aureus [7] = assay: Antibacterial activity against methicillin resistant Staphylococcus aureus ATCC33591 assessed as post antibiotic effect at 8 ug/ml measured after 2 hrs; assay type: functional; settings: dose 8 µg/ml
[8] = Cytotoxicity against human HepG2 cells assessed as cell viability at 32 to 64 ug/ml measured after 24 hrs by MTT assay; assay type: toxicity, cell-based; settings: at 32 to 64 µg/mL, dose 32-64 µg/ml, read-out: Activity
[9] = Cytotoxicity against human L02 cells assessed as cell viability at 32 to 64 ug/ml measured after 24 hrs by MTT assay; assay type: toxicity, cell-based; settings: at 32 to 64 µg/mL, dose 32-64 µg/ml, read-out: Activity
Staphylococcus aureus [10] = assay: Antibacterial activity against methicillin resistant Staphylococcus aureus ATCC33591 assessed as inhibition of bacterial growth at 1 times MIC incubated for 24 hrs by time kill assay; assay type: functional, organism-based
Staphylococcus aureus [11] = assay: Ratio of MBC to MIC for Staphylococcus aureus ATCC25923; assay type: functional
Staphylococcus aureus [12] = assay: Bactericidal activity against Staphylococcus aureus ATCC25923 assessed as inhibition of bacterial growth incubated for 24 hrs by resazurin dye based analysis; assay type: functional
Staphylococcus aureus [13] = assay: Drug resistance, ratio of MIC for methicillin-resistant Staphylococcus aureus ATCC33591 after 18 passages to MIC for methicillin-resistant Staphylococcus aureus ATCC33591 after initial exposure; assay type: functional
Staphylococcus aureus [14] = assay: Antibacterial activity against methicillin resistant Staphylococcus aureus ATCC33591 infected in mouse model of abdominal infection assessed as reduction in mean bacterial load in blood at 2 mg/kg, ip treated for 24 hrs starting from 2 hrs post infection; assay type: functional, organism-based
Staphylococcus aureus [15] = assay: Antibacterial activity against methicillin resistant Staphylococcus aureus ATCC33591 assessed as post antibiotic effect at 2 ug/ml measured after 2 hrs; assay type: functional; settings: dose 2 µg/ml
Staphylococcus aureus [16] = assay: Antibacterial activity against methicillin resistant Staphylococcus aureus ATCC33591 assessed as post antibiotic effect at 1 ug/ml measured after 2 hrs; assay type: functional; settings: dose 1 µg/ml

SMILES	MIC (Escherichia coli)	MIC (Enterococcus faecium)	MIC [1]	MIC (Staphylococcus aureus [2])	MIC (Staphylococcus aureus [3])	MIC (Ralstonia solanacearum)	PAE (Staphylococcus aureus [4])	Activity (Staphylococcus aureus [5])	MBC (Staphylococcus aureus [6])	PAE (Staphylococcus aureus [7])	viability at 24 h [8]	viability at 24 h [9]	Activity (Staphylococcus aureus [10])	Ratio (Staphylococcus aureus [11])	MBC (Staphylococcus aureus [12])	Ratio (Staphylococcus aureus [13])	Activity (Staphylococcus aureus [14])	PAE (Staphylococcus aureus [15])	PAE (Staphylococcus aureus [16])
Cc1cccc(C(=O)Nc2ccc(C3NCCc4c3[nH]c3ccccc43)cc2)c1 (configuration not stated)	32 µg/mL (≈ 83.9 µM)	> 128 µg/mL	32 µg/mL (≈ 83.9 µM)	64 µg/mL (≈ 168 µM)	32 µg/mL (≈ 83.9 µM)	32 µg/mL (≈ 83.9 µM)													
O=C(Nc1ccc(C2NCCc3c2[nH]c2ccccc32)cc1)c1ccc([N+](=O)[O-])cc1 (configuration not stated)	8 µg/mL (≈ 19.4 µM)	> 128 µg/mL	32 µg/mL (≈ 77.6 µM)	4 µg/mL (≈ 9.7 µM)	8 µg/mL (≈ 19.4 µM)	8 µg/mL (≈ 19.4 µM)													
O=C(Nc1ccc(C2NCCc3c2[nH]c2ccccc32)cc1)c1ccc(F)cc1 (configuration not stated)	16 µg/mL (≈ 41.5 µM)	> 128 µg/mL	64 µg/mL (≈ 166 µM)	4 µg/mL (≈ 10.4 µM)	4 µg/mL (≈ 10.4 µM)	4 µg/mL (≈ 10.4 µM)	1.28 h	Active	8 µg/mL (≈ 20.8 µM)	0.95 h	> 95%	> 95%	Active	1	8 µg/mL (≈ 20.8 µM)	<4			
O=C(Nc1ccc(C2NCCc3c2[nH]c2ccccc32)cc1)c1cccc(F)c1 (configuration not stated)	16 µg/mL (≈ 41.5 µM)	> 128 µg/mL	32 µg/mL (≈ 83 µM)	4 µg/mL (≈ 10.4 µM)	16 µg/mL (≈ 41.5 µM)	8 µg/mL (≈ 20.8 µM)													
O=C(O)c1cn(C2CC2)c2cc(N3CCNCC3)c(F)cc2c1=O [CIPROFLOXACIN]		> 128 µg/mL	0.5 µg/mL (≈ 1.51 µM)	0.5 µg/mL (≈ 1.51 µM)	0.5 µg/mL (≈ 1.51 µM)	0.25 µg/mL (≈ 0.754 µM)			2 µg/mL (≈ 6.04 µM)								Active	1.79 h	1.18 h
O=C(Nc1ccc(C2NCCc3c2[nH]c2ccccc32)cc1)c1ccccc1F (configuration not stated)	64 µg/mL (≈ 166 µM)	> 128 µg/mL	64 µg/mL (≈ 166 µM)	32 µg/mL (≈ 83 µM)	32 µg/mL (≈ 83 µM)	128 µg/mL (≈ 332 µM)													
CN1CCc2c([nH]c3ccccc23)C1c1ccc(NC(=O)c2cccc(Cl)c2)cc1 (configuration not stated)	16 µg/mL (≈ 38.5 µM)	> 128 µg/mL	64 µg/mL (≈ 154 µM)	8 µg/mL (≈ 19.2 µM)	16 µg/mL (≈ 38.5 µM)	16 µg/mL (≈ 38.5 µM)													
COC(=O)c1ccc(C(=O)Nc2ccc(C3c4[nH]c5ccccc5c4CCN3C)cc2)cc1 (configuration not stated)	128 µg/mL (≈ 291 µM)	> 128 µg/mL	32 µg/mL (≈ 72.8 µM)	32 µg/mL (≈ 72.8 µM)	64 µg/mL (≈ 146 µM)	128 µg/mL (≈ 291 µM)													
Cc1cccc(C(=O)Nc2ccc(C3c4[nH]c5ccccc5c4CCN3C)cc2)c1 (configuration not stated)	64 µg/mL (≈ 162 µM)	> 128 µg/mL	32 µg/mL (≈ 80.9 µM)	64 µg/mL (≈ 162 µM)	32 µg/mL (≈ 80.9 µM)	32 µg/mL (≈ 80.9 µM)													
CN1CCc2c([nH]c3ccccc23)C1c1ccc(NC(=O)c2cccc(C(F)(F)F)c2)cc1 (configuration not stated)	32 µg/mL (≈ 71.2 µM)	> 128 µg/mL	32 µg/mL (≈ 71.2 µM)	32 µg/mL (≈ 71.2 µM)	32 µg/mL (≈ 71.2 µM)	16 µg/mL (≈ 35.6 µM)													
CN1CCc2c([nH]c3ccccc23)C1c1ccc(NC(=O)c2cccc(F)c2)cc1 (configuration not stated)	16 µg/mL (≈ 40.1 µM)	> 128 µg/mL	16 µg/mL (≈ 40.1 µM)	4 µg/mL (≈ 10 µM)	32 µg/mL (≈ 80.1 µM)	16 µg/mL (≈ 40.1 µM)													
O=C(Nc1ccc(C2NCCc3c2[nH]c2ccccc32)cc1)c1ccc(Cl)cc1 (configuration not stated)	16 µg/mL (≈ 39.8 µM)	> 128 µg/mL	128 µg/mL (≈ 318 µM)	8 µg/mL (≈ 19.9 µM)	4 µg/mL (≈ 9.95 µM)	8 µg/mL (≈ 19.9 µM)			16 µg/mL (≈ 39.8 µM)					1	32 µg/mL (≈ 79.6 µM)				
O=C(Nc1ccc(C2NCCc3c2[nH]c2ccccc32)cc1)c1ccc(F)c(C(F)(F)F)c1 (configuration not stated)	8 µg/mL (≈ 17.6 µM)	> 128 µg/mL	32 µg/mL (≈ 70.6 µM)	8 µg/mL (≈ 17.6 µM)	4 µg/mL (≈ 8.82 µM)	16 µg/mL (≈ 35.3 µM)													
CN1CCc2c([nH]c3ccccc23)C1c1ccc(NC(=O)c2ccc([N+](=O)[O-])cc2)cc1 (configuration not stated)	32 µg/mL (≈ 75 µM)	> 128 µg/mL	32 µg/mL (≈ 75 µM)	16 µg/mL (≈ 37.5 µM)	32 µg/mL (≈ 75 µM)	32 µg/mL (≈ 75 µM)													
O=C(Nc1ccc(C2NCCc3c2[nH]c2ccccc32)cc1)c1cccc(C(F)(F)F)c1 (configuration not stated)	8 µg/mL (≈ 18.4 µM)	128 µg/mL (≈ 294 µM)	32 µg/mL (≈ 73.5 µM)	4 µg/mL (≈ 9.19 µM)	8 µg/mL (≈ 18.4 µM)	16 µg/mL (≈ 36.7 µM)													
O=C(Nc1ccc(C2NCCc3c2[nH]c2ccccc32)cc1)c1cccc([N+](=O)[O-])c1 (configuration not stated)	16 µg/mL (≈ 38.8 µM)	> 128 µg/mL	32 µg/mL (≈ 77.6 µM)	16 µg/mL (≈ 38.8 µM)	8 µg/mL (≈ 19.4 µM)	16 µg/mL (≈ 38.8 µM)													
